Source: patent publication US20190330224A1, “ACC INHIBITORS AND USES THEREOF” (Gilead Apollo, LLC, priority 2015, published 2019)
Values after ≈ are worked out from the molar mass of the structure shown.

Columns and labels:
[1] = biological target: Fungal ACC2 (UniProt Q00955); settings: read-out: Fungal ACC2 (IC50, in vitro ACC2 inhibition)
[2] = test system: C. albicans ATCC 90028; assay: Anti-Fungal Activity Assay (broth microtiter MIC), C. albicans; type: cell-based, Candida albicans; settings: Candida albicans, ATCC90028, 48 h, 3 replicates; MIC recorded at 48 h; read-out: MIC C. albicans ATCC 90028
Method in brief: (§1)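 MIC by visual comparison with growth control, read at 48 h (soraphen also at 24 h). Inoculum: colonies from overnight Sabouraud dextrose agar plates at 35° C, suspended in RPMI 1640+MOPS, density from standard curves. Microtiter broth dilution per CLSI M27-A3; compounds from 1 mg/mL DMSO stocks.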

[3] = biological target: Human ACC2 (Homo sapiens, UniProt O00763); assay: In vitro ACC2 inhibition assay (ADP-Glo), human ACC2; type: biochemical; settings: 5 nM ACC2, 20 μM ATP, 20 μM acetyl-CoA
[4] = test system: C. krusei ATCC 6258; assay: Anti-Fungal Activity Assay (broth microtiter MIC), C. krusei; type: cell-based, Candida krusei; settings: Pichia kudriavzevii, ATCC6258, 48 h, 3 replicates; MIC recorded at 48 h; read-out: MIC C. krusei ATCC 6258
Method in brief: as §1

[5] = test system: C. parapsilosis ATCC 22019; assay: Anti-Fungal Activity Assay (broth microtiter MIC), C. parapsilosis; type: cell-based, Candida parapsilosis; settings: Lodderomyces parapsilosis, ATCC22019, 48 h, 3 replicates; MIC recorded at 48 h; read-out: MIC C. parapsilosis ATCC 22019
Method in brief: as §1

Chain of Fungal ACC2 (Q00955 whole entry): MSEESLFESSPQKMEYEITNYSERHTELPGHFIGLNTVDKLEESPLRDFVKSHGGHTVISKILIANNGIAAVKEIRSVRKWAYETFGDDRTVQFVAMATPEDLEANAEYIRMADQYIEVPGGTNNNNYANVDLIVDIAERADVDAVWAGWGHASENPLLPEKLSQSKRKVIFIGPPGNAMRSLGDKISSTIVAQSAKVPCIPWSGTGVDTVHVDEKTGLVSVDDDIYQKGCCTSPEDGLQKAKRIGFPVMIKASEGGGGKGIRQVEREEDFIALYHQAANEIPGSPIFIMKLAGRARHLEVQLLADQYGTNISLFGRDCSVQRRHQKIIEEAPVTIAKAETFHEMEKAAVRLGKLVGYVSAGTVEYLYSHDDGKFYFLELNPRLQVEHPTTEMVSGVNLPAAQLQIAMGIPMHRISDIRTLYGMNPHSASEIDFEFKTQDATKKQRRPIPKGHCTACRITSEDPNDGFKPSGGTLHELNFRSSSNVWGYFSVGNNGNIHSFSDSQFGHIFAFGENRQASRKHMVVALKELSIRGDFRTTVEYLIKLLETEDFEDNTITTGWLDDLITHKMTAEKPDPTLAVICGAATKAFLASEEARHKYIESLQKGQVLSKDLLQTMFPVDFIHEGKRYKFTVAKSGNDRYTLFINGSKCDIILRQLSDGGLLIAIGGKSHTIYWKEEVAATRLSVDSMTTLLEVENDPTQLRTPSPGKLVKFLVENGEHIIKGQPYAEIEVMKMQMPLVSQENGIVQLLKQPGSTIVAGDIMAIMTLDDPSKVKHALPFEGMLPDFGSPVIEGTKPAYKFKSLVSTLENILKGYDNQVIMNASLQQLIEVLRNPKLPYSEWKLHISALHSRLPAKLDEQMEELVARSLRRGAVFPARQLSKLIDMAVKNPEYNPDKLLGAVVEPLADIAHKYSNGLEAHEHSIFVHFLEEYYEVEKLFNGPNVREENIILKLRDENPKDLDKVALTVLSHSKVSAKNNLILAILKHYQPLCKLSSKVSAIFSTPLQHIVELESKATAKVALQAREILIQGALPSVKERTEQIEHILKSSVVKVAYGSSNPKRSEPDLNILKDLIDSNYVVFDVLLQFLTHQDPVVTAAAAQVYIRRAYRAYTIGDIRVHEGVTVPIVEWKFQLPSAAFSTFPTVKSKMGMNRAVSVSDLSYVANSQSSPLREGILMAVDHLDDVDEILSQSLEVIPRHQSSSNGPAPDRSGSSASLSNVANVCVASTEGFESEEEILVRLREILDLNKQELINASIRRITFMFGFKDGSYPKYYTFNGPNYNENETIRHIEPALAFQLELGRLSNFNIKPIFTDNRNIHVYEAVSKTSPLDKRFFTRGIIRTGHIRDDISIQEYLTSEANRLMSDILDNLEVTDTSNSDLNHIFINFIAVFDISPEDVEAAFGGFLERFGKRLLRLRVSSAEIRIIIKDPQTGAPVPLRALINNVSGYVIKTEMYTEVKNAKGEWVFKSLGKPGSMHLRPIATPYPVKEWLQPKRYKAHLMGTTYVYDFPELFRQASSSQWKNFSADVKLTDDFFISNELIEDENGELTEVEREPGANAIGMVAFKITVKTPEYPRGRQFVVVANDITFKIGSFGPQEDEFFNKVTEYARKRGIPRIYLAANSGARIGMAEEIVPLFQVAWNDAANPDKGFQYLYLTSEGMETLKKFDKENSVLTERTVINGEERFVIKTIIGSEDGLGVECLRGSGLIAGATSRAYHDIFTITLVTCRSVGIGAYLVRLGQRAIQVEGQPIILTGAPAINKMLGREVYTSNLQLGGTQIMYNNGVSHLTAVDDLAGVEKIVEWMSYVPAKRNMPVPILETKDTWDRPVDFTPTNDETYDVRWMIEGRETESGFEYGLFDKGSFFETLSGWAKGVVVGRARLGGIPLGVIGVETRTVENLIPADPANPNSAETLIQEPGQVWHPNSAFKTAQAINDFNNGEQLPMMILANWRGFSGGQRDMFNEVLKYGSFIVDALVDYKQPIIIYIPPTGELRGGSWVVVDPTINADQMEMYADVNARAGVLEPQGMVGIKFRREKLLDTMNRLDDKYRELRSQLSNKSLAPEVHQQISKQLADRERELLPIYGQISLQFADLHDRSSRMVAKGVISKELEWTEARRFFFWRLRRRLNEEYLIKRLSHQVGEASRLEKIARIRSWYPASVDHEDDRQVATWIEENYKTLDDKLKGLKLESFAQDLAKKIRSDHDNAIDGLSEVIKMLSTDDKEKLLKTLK
Chain of Human ACC2 (O00763 whole entry): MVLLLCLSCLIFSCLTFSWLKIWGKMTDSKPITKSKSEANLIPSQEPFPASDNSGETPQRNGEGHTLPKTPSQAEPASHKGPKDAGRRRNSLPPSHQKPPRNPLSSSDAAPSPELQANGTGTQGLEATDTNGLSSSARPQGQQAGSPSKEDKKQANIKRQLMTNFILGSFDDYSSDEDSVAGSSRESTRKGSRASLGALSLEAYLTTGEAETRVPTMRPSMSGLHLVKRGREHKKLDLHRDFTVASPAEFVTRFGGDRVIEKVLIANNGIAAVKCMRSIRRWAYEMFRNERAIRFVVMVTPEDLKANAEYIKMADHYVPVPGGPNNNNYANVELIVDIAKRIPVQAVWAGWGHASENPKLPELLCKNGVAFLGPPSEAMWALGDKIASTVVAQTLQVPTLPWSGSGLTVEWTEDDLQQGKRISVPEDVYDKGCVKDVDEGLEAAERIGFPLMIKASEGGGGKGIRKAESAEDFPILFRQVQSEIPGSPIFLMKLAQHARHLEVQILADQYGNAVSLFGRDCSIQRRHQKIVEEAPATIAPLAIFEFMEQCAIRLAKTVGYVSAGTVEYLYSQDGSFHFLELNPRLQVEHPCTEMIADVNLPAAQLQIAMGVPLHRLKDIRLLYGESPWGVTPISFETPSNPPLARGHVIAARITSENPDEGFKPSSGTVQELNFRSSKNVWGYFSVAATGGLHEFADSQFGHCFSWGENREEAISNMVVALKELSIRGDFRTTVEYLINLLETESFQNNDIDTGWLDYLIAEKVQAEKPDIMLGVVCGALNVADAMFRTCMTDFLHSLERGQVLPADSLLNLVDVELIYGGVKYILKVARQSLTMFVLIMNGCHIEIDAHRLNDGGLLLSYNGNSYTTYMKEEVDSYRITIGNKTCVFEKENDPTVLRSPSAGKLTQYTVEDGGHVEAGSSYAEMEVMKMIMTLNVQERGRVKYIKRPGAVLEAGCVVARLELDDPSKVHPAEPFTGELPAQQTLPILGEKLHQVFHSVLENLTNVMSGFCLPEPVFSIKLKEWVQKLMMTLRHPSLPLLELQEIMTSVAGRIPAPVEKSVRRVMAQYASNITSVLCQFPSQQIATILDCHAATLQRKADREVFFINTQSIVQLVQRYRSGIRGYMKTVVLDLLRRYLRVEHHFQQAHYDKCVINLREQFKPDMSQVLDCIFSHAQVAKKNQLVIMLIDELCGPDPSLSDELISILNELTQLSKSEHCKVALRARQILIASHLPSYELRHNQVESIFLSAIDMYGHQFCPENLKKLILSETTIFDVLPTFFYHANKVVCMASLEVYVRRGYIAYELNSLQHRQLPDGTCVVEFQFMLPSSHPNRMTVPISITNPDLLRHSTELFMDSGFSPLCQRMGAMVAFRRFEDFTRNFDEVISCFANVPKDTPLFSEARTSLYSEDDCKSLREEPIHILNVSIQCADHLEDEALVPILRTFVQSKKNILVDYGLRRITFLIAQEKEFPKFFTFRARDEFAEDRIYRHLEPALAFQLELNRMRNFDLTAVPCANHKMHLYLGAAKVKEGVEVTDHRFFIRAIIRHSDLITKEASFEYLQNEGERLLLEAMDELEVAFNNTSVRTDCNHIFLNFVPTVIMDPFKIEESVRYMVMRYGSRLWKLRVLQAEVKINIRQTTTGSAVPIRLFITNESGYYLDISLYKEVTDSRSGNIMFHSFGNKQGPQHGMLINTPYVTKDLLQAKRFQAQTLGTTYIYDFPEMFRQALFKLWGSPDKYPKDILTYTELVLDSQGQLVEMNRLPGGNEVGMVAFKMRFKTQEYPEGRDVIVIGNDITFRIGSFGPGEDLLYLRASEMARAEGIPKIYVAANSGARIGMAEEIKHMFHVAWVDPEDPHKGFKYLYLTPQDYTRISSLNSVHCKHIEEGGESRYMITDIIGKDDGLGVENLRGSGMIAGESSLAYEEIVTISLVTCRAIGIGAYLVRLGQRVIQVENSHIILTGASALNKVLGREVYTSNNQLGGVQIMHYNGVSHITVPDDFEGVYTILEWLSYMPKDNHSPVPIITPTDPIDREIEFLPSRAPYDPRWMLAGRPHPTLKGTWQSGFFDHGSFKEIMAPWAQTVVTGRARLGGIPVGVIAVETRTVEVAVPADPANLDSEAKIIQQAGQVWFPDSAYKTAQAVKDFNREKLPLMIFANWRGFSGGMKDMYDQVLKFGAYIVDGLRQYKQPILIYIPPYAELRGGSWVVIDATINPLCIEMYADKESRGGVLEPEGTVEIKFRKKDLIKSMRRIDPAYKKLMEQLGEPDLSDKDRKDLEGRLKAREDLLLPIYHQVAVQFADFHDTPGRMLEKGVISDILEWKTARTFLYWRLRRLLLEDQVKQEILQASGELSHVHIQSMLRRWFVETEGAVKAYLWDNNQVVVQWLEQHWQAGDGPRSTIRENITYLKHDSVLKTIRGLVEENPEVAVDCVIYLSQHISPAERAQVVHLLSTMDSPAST

Row | SMILES | IC50 [1] | MIC [2] | IC50 [3] | MIC [4] | MIC [5]
1 | COc1ccc(F)cc1[C@H](Cn1c(=O)n(C2CCN(C)C2=O)c(=O)c2c(C)c(-c3ncco3)sc21)OCCO (stereo partly drawn) [Compound I-55, 1-((R)-2-(5-fluoro-2-methoxyphenyl)-2-(2-hydroxy-ethoxy)ethyl)-5-methyl-3-(-methyl-2-oxopyrrolidin-3-yl)-6-(oxazol-2-yl)thieno[2,3-d]pyrimidine-2,4(1H,3H)-dione] | 0.7 to 2 nM | 2.1 to 4 µg/mL (≈ 3.76 to 7.16 µM) | 10 to 100 nM | 2.1 to 4 µg/mL (≈ 3.76 to 7.16 µM) | 2.1 to 4 µg/mL (≈ 3.76 to 7.16 µM)
2 | COc1ccccc1[C@H](Cn1c(=O)n([C@@H]2CCCNC2=O)c(=O)c2c(C)c(-c3ncco3)sc21)OCCO [Compound I-61, 1-((R)-2-(2-hydroxyethoxy)-2-(2-methoxyphenyl)ethyl)-5-methyl-6-(oxazol-2-yl)-3-((R)-2-oxopiperidin-3-yl)thieno[2,3-d]pyrimidine-2,4(1H,3H)-dione] | 0.7 to 2 nM | 2.1 to 4 µg/mL (≈ 3.88 to 7.4 µM) | 10 to 100 nM | 2.1 to 4 µg/mL (≈ 3.88 to 7.4 µM) | 2.1 to 4 µg/mL (≈ 3.88 to 7.4 µM)
3 | COc1ccccc1[C@H](Cn1c(=O)n([C@H]2CCCN(C)C2=O)c(=O)c2c(C)c(-c3ncco3)sc21)OCCO [Compound I-66, 1-((R)-2-(2-hydroxyethoxy)-2-(2-methoxyphenyl)ethyl)-5-methyl-3-((S)-1-methyl-2-oxopiperidin-3-yl)-6-(oxazol-2-yl)thieno[2,3-d]pyrimidine-2,4(1H,3H)-dione] | 2 to 10 nM | 2.1 to 4 µg/mL (≈ 3.79 to 7.21 µM) | 10 to 100 nM | 2.1 to 4 µg/mL (≈ 3.79 to 7.21 µM) | 2.1 to 4 µg/mL (≈ 3.79 to 7.21 µM)
4 | COc1ccccc1[C@H](Cn1c(=O)n([C@@H]2CCCN(C)C2=O)c(=O)c2c(C)c(-c3ncco3)sc21)OCCO [Compound I-67, 1-((R)-2-(2-hydroxyethoxy)-2-(2-methoxyphenyl)ethyl)-5-methyl-3-((R)-1-methyl-2-oxopiperidin-3-yl)-6-(oxazol-2-yl)thieno[2,3-d]pyrimidine-2,4(1H,3H)-dione] | 2 to 10 nM | 2.1 to 4 µg/mL (≈ 3.79 to 7.21 µM) | 10 to 100 nM | 2.1 to 4 µg/mL (≈ 3.79 to 7.21 µM) | 2.1 to 4 µg/mL (≈ 3.79 to 7.21 µM)
5 | COc1ccc(F)cc1[C@H](Cn1c(=O)n([C@H]2CCNC2=O)c(=O)c2c(C)c(-c3ncco3)sc21)OCCO [Compound I-68, 1-((R)-2-(5-fluoro-2-methoxyphenyl)-2-(2-hydroxy-ethoxy)ethyl)-5-methyl-6-(oxazol-2-yl)-3-((S)-2-oxopyrrolidin-3-yl)thieno[2,3-d]pyrimidine-2,4(1H,3H)-dione] | 2 to 10 nM | 2.1 to 4 µg/mL (≈ 3.86 to 7.35 µM) | 10 to 100 nM | 2.1 to 4 µg/mL (≈ 3.86 to 7.35 µM) | 2.1 to 4 µg/mL (≈ 3.86 to 7.35 µM)
6 | COc1ccc(F)cc1[C@H](Cn1c(=O)n([C@@H]2CCNC2=O)c(=O)c2c(C)c(-c3ncco3)sc21)OCCO [Compound I-69, 1-((R)-2-(5-fluoro-2-methoxyphenyl)-2-(2-hydroxy-ethoxy)ethyl)-5-methyl-6-(oxazol-2-yl)-3-((R)-2-oxopyrrolidin-3-yl)thieno[2,3-d]pyrimidine-2,4(1H,3H)-dione] | 2 to 10 nM | 2.1 to 4 µg/mL (≈ 3.86 to 7.35 µM) | 10 to 100 nM | 2.1 to 4 µg/mL (≈ 3.86 to 7.35 µM) | 2.1 to 4 µg/mL (≈ 3.86 to 7.35 µM)
7 | COCCO[C@@H](Cn1c(=O)n([C@@H]2CCN(C(=O)C(C)C)C2)c(=O)c2c(C)c(-n3nccn3)sc21)c1cc(F)ccc1OC [Compound I-86, 1-((R)-2-(5-fluoro-2-methoxyphenyl)-2-(2-methoxy-ethoxy)ethyl)-3-((R)-1-isobutyrylpyrrolidine-3-yl)-5-methyl-6-(2H-1,2,3-triazol-2-yl)thieno[2,3-d]pyrimidine-2,4(1H,3H)-dione] | 0.7 to 2 nM | 2.1 to 4 µg/mL (≈ 3.42 to 6.51 µM) | 10 to 100 nM | 2.1 to 4 µg/mL (≈ 3.42 to 6.51 µM) | 2.1 to 4 µg/mL (≈ 3.42 to 6.51 µM)
8 | COc1ccc(F)cc1[C@H](Cn1c(=O)n([C@@H]2CCN(C(=O)C(C)C)C2)c(=O)c2c(C)c(-n3nccn3)sc21)OCCO [Compound I-87, 1-((R)-2-(5-fluoro-2-methoxyphenyl)-2-(2-hydroxy-ethoxy)ethyl)-3-((R)-1-isobutyrylpyrrolidine-3-yl)-5-methyl-6-(2H-1,2,3-triazol-2-yl)thieno[2,3-d]pyrimidine-2,4(1H,3H)-dione] | 0.7 to 2 nM | 2.1 to 4 µg/mL (≈ 3.5 to 6.66 µM) | 10 to 100 nM | 2.1 to 4 µg/mL (≈ 3.5 to 6.66 µM) | 2.1 to 4 µg/mL (≈ 3.5 to 6.66 µM)
9 | COCCO[C@@H](Cn1c(=O)n([C@H]2CNC(=O)C2)c(=O)c2c(C)c(-n3nccn3)sc21)c1cc(F)ccc1OC [Compound I-88, 1-((R)-2-(5-fluoro-2-methoxyphenyl)-2-(2-methoxy-ethoxy)ethyl)-5-methyl-3-((R)-5-oxopyrrolidin-3-yl)-6-(2H-1,2,3-triazol-2-yl)thieno[2,3-d]pyrimidine-2,4(1H,3H)-dione] | 0.7 to 2 nM | 2.1 to 4 µg/mL (≈ 3.76 to 7.16 µM) | 10 to 100 nM | 2.1 to 4 µg/mL (≈ 3.76 to 7.16 µM) | 2.1 to 4 µg/mL (≈ 3.76 to 7.16 µM)
